Data published in ChEMBL document CHEMBL1201862, “PubChem BioAssay data set” (2004).
Values belong to the compound of their own block, whether it stands above or below them. Active and inactive are the calls of the source.

Columns and labels:
[1] = tested on: A-375; assay: MITF: Counter assay: A375 proliferation Measured in Cell-Based System Using Plate Reader - 2084-03_Inhibitor_Dose_DryPowder_Activity. [Related pubchem assays (depositor defined):AID488944]; format: functional; details: Homo sapiens
[2] = target: T1, Sentrin-specific protease 8 (Homo sapiens, UniProt Q96LD8); format: functional;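 also: luminescence read-out of SENP8 inhibition, dose-response confirmation following an ultra-high-throughput screen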
T1 sequence (Q96LD8 whole entry): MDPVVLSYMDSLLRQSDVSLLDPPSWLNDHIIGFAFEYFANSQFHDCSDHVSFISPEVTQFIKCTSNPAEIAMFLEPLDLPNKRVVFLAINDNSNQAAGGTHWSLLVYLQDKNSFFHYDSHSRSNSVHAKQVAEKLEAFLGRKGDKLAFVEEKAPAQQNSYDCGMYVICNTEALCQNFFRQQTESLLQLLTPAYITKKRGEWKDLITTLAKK

[3] = target: T2, Sentrin-specific protease 7 (Homo sapiens, UniProt Q9BQF6); format: functional;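 also: Luminescence-based dose-response confirmation of ultra-high-throughput screening hits, measuring inhibition of SENP7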
T2 sequence (Q9BQF6 whole entry): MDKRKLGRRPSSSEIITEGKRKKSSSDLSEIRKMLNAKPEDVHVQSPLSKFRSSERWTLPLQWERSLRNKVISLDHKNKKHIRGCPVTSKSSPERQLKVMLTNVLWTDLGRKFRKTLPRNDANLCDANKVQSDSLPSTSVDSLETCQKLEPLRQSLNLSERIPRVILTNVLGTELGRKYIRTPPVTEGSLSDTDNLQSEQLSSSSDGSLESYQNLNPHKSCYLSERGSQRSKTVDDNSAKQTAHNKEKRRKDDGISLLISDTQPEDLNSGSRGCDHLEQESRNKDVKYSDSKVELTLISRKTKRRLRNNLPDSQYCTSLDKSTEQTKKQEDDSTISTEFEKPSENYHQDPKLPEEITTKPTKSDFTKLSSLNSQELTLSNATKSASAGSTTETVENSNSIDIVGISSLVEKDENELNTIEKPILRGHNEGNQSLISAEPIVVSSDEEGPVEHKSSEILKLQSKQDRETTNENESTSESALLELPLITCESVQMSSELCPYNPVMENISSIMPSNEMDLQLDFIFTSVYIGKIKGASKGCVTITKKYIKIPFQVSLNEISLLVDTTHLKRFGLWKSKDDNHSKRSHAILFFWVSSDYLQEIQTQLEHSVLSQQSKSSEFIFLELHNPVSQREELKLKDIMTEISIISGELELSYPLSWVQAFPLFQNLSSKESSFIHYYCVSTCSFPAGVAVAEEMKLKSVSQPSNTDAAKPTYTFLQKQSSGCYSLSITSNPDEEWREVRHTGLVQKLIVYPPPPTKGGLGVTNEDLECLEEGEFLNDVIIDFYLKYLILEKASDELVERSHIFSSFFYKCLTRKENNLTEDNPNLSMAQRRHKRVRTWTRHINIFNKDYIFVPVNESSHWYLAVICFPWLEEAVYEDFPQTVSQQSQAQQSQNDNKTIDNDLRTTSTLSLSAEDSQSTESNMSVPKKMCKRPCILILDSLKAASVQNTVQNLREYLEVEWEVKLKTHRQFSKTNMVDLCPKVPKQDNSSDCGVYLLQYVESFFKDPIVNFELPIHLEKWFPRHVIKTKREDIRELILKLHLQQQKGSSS

[4] = target: T3, Tyrosyl-DNA phosphodiesterase 2 (Homo sapiens, UniProt O95551); assay: human TDP2 enzyme inhibitors, dose response, biochemical, epi absorbance, IC50 (AID 743297)
T3 sequence (O95551 whole entry): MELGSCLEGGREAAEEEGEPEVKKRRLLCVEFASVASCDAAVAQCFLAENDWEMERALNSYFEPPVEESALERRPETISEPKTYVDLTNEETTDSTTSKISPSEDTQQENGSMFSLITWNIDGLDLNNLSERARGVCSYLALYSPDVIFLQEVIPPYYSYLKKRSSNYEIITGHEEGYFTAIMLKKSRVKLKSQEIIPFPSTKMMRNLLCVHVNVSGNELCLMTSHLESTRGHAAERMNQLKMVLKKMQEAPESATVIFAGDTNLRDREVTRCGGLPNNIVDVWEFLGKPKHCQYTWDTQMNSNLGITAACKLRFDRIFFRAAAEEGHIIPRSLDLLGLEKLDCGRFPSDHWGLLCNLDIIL

[5] = non-specific cell cytotoxicity, dose response, cytotoxicity control for PAX8 inhibitor project, plate reader, dry powder samples (AID 743021); format: functional, cell-based
[6] = cells; format: functional, cell-based
[7] = cells; format: functional, cell-based; remark: listed apart in the source
[8] = Shn3 3'UTR reporter inhibitors, dose response, cell-based, Clone20 osteoblasts, firefly luciferase, cherry-picked (AID 624132); format: functional;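 also: firefly luciferase luminescence from reporter carrying the Shn3 3'UTR in osteoblasts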
[9] = target: Cyclin-dependent kinase 9 (Homo sapiens, UniProt P50750); format: functional;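 also: value from the CDK9 entry of a kinome-spanning kinase panel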
[10] = target: Mitogen-activated protein kinase kinase kinase kinase 2 (Homo sapiens, UniProt Q12851); format: functional;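 also: measured as one member of a kinome-wide kinase panel, with MAP4K2 as the panel entry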
Sequence of Mitogen-activated protein kinase kinase kinase kinase 2 (Q12851 whole entry): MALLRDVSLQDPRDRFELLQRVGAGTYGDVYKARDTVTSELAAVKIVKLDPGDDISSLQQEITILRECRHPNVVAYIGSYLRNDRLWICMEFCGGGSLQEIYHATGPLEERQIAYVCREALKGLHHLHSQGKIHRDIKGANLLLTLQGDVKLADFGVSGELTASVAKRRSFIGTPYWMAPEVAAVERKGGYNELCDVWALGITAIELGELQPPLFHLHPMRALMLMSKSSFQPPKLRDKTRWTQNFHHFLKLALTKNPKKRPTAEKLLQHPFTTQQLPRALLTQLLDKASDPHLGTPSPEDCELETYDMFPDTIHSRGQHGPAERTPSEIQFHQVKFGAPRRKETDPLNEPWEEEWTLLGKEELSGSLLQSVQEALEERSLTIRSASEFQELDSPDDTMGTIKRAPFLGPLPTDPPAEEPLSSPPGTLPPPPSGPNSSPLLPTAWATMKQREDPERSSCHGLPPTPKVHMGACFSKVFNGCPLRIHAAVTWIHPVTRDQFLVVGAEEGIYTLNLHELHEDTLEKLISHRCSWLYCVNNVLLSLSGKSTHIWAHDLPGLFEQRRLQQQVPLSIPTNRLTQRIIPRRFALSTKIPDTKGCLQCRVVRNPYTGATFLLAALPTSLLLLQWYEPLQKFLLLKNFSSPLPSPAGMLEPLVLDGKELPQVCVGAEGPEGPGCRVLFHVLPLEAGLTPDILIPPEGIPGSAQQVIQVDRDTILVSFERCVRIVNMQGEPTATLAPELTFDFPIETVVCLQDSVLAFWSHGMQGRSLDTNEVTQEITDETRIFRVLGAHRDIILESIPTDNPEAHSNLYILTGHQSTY

[11] = target: Mast/stem cell growth factor receptor Kit (Homo sapiens, UniProt P10721); format: functional;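 also: KIT entry within a kinase panel assay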
[12] = target: Vascular endothelial growth factor receptor 2 (Homo sapiens, UniProt P35968); format: functional
Sequence of Vascular endothelial growth factor receptor 2 (P35968 whole entry): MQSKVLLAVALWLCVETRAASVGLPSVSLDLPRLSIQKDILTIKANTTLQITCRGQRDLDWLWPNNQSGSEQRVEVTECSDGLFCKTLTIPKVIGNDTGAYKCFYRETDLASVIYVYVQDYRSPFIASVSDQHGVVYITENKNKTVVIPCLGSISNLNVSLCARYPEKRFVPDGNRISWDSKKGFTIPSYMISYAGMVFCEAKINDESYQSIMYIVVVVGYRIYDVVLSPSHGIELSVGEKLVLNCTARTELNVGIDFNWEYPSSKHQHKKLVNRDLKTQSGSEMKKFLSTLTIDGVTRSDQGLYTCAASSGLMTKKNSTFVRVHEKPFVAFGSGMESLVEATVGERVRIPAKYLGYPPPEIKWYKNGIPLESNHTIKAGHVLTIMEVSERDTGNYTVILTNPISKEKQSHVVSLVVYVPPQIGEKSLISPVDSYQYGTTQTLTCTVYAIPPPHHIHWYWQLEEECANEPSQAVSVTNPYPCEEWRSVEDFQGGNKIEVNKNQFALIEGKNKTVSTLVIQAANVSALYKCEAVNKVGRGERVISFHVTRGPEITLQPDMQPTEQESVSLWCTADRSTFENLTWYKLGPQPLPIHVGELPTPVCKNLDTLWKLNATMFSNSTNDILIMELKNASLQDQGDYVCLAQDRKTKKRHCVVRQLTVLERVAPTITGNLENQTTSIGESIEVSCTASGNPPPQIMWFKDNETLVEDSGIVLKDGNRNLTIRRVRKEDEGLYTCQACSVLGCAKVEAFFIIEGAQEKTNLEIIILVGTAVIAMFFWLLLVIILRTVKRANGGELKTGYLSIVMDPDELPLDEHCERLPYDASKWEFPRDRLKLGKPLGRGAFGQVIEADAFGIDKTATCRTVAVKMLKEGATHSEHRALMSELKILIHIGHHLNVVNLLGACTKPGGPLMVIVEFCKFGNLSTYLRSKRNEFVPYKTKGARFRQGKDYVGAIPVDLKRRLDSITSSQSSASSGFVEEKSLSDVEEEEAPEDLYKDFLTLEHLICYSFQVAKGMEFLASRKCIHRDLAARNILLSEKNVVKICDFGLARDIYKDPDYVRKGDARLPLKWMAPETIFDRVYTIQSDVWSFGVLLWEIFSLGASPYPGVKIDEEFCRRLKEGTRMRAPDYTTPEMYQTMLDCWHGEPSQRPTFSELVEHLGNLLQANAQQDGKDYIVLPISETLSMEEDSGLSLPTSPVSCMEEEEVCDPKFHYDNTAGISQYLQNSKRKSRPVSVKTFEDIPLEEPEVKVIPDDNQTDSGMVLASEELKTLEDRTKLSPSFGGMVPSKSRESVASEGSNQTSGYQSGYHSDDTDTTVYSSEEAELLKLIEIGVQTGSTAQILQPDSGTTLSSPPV

[13] = target: Dual specificity protein kinase CLK4 (Homo sapiens, UniProt Q9HAZ1); format: functional
Sequence of Dual specificity protein kinase CLK4 (Q9HAZ1 whole entry): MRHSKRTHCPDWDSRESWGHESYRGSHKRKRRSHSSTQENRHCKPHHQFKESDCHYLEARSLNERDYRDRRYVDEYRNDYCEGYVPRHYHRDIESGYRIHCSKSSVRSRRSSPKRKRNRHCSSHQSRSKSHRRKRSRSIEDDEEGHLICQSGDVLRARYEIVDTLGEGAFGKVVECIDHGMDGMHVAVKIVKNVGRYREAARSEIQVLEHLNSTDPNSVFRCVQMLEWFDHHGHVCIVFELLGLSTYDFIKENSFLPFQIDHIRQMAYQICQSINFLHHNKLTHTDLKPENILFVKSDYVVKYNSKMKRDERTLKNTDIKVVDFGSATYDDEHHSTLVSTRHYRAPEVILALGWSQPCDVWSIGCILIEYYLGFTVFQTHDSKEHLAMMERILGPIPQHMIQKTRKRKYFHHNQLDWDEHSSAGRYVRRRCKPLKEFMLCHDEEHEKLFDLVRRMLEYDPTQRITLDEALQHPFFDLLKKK

[14] = target: Tyrosine-protein kinase JAK2 (Homo sapiens, UniProt O60674); format: functional;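 also: JAK2 tested as one member of a kinase panel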
[15] = target: Serine/threonine-protein kinase TBK1 (Homo sapiens, UniProt Q9UHD2); assay: Navigating the Kinome. Panel member name: TBK1; format: functional
Sequence of Serine/threonine-protein kinase TBK1 (Q9UHD2 whole entry): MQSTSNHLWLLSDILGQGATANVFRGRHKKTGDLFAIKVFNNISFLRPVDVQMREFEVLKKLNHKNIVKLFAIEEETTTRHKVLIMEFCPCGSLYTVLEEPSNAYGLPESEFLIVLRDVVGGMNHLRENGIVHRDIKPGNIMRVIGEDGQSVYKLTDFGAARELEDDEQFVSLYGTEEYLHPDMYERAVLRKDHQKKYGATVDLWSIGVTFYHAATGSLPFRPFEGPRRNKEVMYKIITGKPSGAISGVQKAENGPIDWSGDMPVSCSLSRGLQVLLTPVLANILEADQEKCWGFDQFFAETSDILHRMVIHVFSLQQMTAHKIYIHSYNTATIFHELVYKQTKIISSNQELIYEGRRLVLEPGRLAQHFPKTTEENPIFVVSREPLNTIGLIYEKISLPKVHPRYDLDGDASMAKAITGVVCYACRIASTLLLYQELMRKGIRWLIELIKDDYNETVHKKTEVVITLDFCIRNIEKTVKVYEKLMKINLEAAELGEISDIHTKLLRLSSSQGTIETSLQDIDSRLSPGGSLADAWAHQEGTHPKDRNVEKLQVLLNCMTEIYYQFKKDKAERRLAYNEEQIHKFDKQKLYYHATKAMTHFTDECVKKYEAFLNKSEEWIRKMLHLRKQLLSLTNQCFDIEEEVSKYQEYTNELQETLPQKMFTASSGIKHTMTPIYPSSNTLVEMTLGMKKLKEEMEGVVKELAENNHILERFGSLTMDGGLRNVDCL

[16] = target: T4, cAMP-dependent protein kinase catalytic subunit PRKX (Homo sapiens, UniProt P51817); format: functional
T4 sequence (P51817 whole entry): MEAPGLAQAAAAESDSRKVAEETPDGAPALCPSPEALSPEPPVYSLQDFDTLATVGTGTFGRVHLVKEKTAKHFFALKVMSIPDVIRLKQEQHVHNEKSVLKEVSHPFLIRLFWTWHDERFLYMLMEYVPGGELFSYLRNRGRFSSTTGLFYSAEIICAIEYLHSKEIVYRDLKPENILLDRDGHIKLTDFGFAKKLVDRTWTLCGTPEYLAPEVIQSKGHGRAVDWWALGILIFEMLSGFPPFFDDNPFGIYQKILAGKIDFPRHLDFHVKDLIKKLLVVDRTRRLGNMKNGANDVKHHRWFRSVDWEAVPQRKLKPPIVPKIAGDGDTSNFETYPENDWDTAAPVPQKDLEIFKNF

[17] = target: cAMP-dependent protein kinase catalytic subunit alpha (Homo sapiens, UniProt P17612); format: functional
[18] = target: Macrophage-stimulating protein receptor (Homo sapiens, UniProt Q04912); assay: Navigating the Kinome. Panel member name: MST1R; format: functional
Sequence of Macrophage-stimulating protein receptor (Q04912 25-304 limits assumed): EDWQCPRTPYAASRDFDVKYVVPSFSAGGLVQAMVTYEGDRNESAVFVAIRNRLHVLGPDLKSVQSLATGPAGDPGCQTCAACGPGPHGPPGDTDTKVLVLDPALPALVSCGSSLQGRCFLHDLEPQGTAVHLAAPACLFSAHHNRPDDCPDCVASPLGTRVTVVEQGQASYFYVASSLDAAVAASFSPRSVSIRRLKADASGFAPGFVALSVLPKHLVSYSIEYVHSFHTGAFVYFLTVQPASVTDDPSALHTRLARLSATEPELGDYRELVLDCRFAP
Sequence of Macrophage-stimulating protein receptor (Q04912 310-1400 limits assumed): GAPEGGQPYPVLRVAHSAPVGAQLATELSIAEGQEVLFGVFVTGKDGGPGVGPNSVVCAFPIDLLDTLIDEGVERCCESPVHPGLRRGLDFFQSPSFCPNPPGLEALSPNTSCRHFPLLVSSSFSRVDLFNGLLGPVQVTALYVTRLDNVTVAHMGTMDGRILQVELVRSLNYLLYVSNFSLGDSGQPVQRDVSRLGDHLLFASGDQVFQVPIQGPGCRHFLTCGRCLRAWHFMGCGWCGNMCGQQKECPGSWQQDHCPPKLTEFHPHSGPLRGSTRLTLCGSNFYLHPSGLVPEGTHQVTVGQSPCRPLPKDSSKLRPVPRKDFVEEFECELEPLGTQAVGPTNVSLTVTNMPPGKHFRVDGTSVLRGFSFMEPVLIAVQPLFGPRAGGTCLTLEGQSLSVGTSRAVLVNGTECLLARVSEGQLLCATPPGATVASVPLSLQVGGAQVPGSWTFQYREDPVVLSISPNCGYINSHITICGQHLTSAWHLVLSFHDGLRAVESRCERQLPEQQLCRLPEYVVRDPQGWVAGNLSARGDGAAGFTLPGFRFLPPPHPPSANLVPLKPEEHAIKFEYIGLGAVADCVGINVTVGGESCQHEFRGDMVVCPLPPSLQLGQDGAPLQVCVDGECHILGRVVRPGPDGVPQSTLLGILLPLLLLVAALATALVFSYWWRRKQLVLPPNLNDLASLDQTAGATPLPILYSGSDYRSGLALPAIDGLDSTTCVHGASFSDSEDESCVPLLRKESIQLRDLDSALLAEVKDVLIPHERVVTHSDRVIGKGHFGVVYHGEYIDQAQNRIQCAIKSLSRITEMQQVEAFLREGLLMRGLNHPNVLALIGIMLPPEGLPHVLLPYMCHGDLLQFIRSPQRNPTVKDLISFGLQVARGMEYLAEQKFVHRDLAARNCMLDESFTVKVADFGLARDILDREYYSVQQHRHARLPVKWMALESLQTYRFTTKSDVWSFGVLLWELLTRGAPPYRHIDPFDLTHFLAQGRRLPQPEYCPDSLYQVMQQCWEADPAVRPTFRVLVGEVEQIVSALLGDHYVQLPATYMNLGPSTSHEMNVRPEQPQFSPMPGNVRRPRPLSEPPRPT

[19] = target: Cyclin-dependent kinase 5 (Homo sapiens, UniProt Q00535); format: functional;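 also: CDK5 measured as one member of a kinase profiling panel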
Sequence of Cyclin-dependent kinase 5 (Q00535 whole entry): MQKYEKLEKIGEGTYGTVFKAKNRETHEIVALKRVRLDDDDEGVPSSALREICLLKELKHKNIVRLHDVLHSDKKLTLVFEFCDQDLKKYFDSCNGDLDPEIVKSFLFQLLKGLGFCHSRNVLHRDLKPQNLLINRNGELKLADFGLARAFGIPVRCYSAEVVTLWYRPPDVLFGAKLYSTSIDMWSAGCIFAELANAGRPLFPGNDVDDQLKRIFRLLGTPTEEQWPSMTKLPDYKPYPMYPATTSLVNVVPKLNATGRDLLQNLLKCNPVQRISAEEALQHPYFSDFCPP

Structure (SMILES): CCc1cc[n+](C2=C([N-]S(=O)(=O)c3cccs3)C(=O)c3ccccc3C2=O)cc1
AC50 [1]: 35.4 µM (active)
IC50 [2]: 8.48 µM (active)
IC50 [3]: 8.3 µM (active)

Structure (SMILES): O=C(NC1=C(NC2CCS(=O)(=O)C2)C(=O)c2ccccc2C1=O)c1ccccc1 (configuration not stated)
IC50 [4]: 28.3 µM (inactive)
AC50 [5]: 36.5 µM (active)

Structure (SMILES): CCCC(=O)NC(c1ccc(N(C)C)cc1)c1ccc2cccnc2c1O (configuration not stated)
EC50 [6]: > 350 µM (not active)
EC50 [7]: 4.76 µM (active)
AC50 [8]: 0.916 µM (active)

Ki [9]: 0.316 µM (active)
Ki [10]: 1 µM (active)
Ki [11]: > 6.31 µM (inactive)
Ki [12]: 0.794 µM (active)
Ki [13]: > 1.58 µM (inactive)
Ki [14]: > 2.51 µM (inactive)
Ki [15]: > 3.16 µM (inactive)
Ki [16]: > 2 µM (inactive)
Ki [17]: 0.0316 µM (active)
Ki [18]: 0.1 µM (active)
Ki [19]: 0.794 µM (active)
Structure (SMILES): O=C1NC(=O)C(c2c[nH]c3ccccc23)=C1c1nc(N2CCNCC2)nc2ccccc12

IC50 [4]: 20 µM (inactive)
IC50 [3]: 6.78 µM (active)
Structure (SMILES): COc1ccccc1N(/N=C1\Sc2ccccc2C1=O)C(C)=O
IC50 [2]: 5.39 µM (active)
